Source: US20160113900A1, “INHIBITORS OF MITOCHONDRIAL STAT3 AND USES THEREOF IN MODULATION OF MAST CELL EXOCYTOSIS” (Yissum Research Development Company of the Hebrew …, priority 2014, published 2016)

Legend:
[1] = test system: succinate dehydrogenase (SDH, complex 2); assay: ETC complex activity analysis in treated RBL cells: complex 2; type: cell-based, rat; details: 60 μM Stattic, 30 min
Method: (§1) The enzymatic activities of respiratory chain complexes were measured at 37° C. by standard spectrophotometric methods as previously described5, 6. Briefly, complex II was measured as succinate dehydrogenase (SDH) based on the succinate-mediated phenazine methosulfate reduction of dichloroindophenol at 600 nm Complex 2+3 were measured as succinate cytochrome c reductase and after the reduction of oxidized cytochrome c at 550 nm. Complex 4 (cytochrome c oxidase) was measured by following the oxidation of reduced cytochrome c at 550 nm.
(§2) Citrate synthase (CS), an ubiquitous mitochondrial matrix enzyme, serving as a control, was measured in the presence of acetylCoA and oxaloacetate by monitoring the liberation of CoASH coupled to 5′,5′-dithiobis(2-nitrobenzoic) acid at 412 nm. Activities are presented as a ratio to CS. Protein concentration was determined by the Lowry method and calculated according to a bovine serum albumin (BSA) standard curve.

RBL cells [2] = assay: Oxygen consumption (Seahorse XF analyzer) in RBL cells; type: cell-based, rat; details: RBL cells, 60 μM Stattic, 20 min
Method: (§3) RBL-2H3 cells were maintained in RPMI 1640 medium as previously described1. Bone marrow was isolated from 5-6 week-old mice, and BMMC were cultured in RPMI medium supplemented with 20 ng/ml interleukin-3 (IL-3) and 20 ng/ml SCF as previously described2, 3. Cells were generally grown for a minimum of 4 weeks and used when >90% of the population expressed FcεRI. BMMC and RBL cells were sensitized first with anti-DNP IgE monoclonal antibody (SPE-7; Sigma-Aldrich Corp.) and then challenged with DNP-BSA (Sigma-Aldrich Corp.). IgE antibody was centrifuged (18,000 g, 5 min) before use to remove aggregates. […] For glycolysis elimination cells were maintained in glucose-free RPMI supplemented with 10% dialyzed fetal calf serum and 5 mM galactose.
Oxygen consumption rate (OCR) was measured using an XF24 extracellular flux analyzer (Seahorse Biosciences, North Billeric, Mass., USA).

BMMC [3] = assay: Measurements of secreted mediators (ELISA) in activated BMMC; type: cell-based, mouse; details: immunologically activated BMMC, 60 μM Stattic 20 min
Method: 1×106 BMMC were immunologically activated as described above. After IgE incubation, the cells were washed three times in PBS and incubated with DNP-albumin (Sigma-Aldrich) for 30 mM in complete growth medium. Supernatant was collected and Granzyme B and TNFα content were measured using ELISA Kits (eBioscience).

RBL cells [4] = assay: TNF-α secretion of activated RBL cells; type: cell-based, rat; details: RBL cells, IgE/DNP-BSA, 60 μM Stattic 20 min
[5] = test system: succinate cytochrome c reductase (complex 2+3); assay: ETC complex activity analysis in treated RBL cells: complex 2+3; type: cell-based, rat; details: 60 μM Stattic, 30 min, ratio to citrate synthase
Method: as §1, §2

plasma histamine = assay: In vivo histamine release assay, passive systemic IgE-mediated anaphylaxis model
Method: C3H 6-7 week male and female WT mice were purchased from Jackson Lab (Cambridge, Mass., USA), mice were fed a regular diet and with drinking water ad libitum. Experiments were approved by The Hebrew University Ethical Committee for Animal Experimentation.
WT C3H mice were sensitized with 3 μg murine IgE anti-DNP mAb SPE-7 by means of intravenous injection in the tail vein. Twenty-four hours later, mice were treated with 40 mg/kg of static dissolved in corn oil or corn oil alone for 2.5 hours, then mice were challenged with i.v. injection of DNP-BSA (250 μg per mouse). 100 μl of blood was collected immediately and added to an equal volume of pre-cold Alsever's Solution. Blood was centrifuged 2000 g for […] and plasma supernatant was collected. Plasma histamine levels were determined by using competitive ELISA (IBL International Gmbh, Hamburg, Germany).
STAT3's role in vivo was investigated by evaluating the response to allergic stimulation in Stattic-treated mice. The passive systemic IgE-mediated anaphylaxis model was used. Mice were injected (i.v.) with IgE anti-DNP. Twenty four hours later they were injected (i.p.) with Stattic (80 mg/kg) or corn oil which was used as control. Three and a half hours later the mice were challenged with DNP-BSA for 1.5 minutes. Plasma was collected, and histamine levels were measured by competitive ELISA. Histamine secretion in Stattic-treated mice was 43% less than that in control mice (FIG. 17, p<0.05).
Mitocur-1/3 effectiveness in vivo was investigated by evaluating the response to allergic stimulation in Mitocur-1/3-treated mice. The passive systemic IgE-mediated anaphylaxis model was used. Mice were injected (i.v.) with IgE anti-DNP. Twenty four hours later they were injected (i.p.) with Mitocur-1 (80 mg/kg) and Mitocur-3 (40 mg/kg). Corn oil was used as control. Three and a half hours later the mice were challenged with DNP-BSA for 1.5 minutes. Plasma was collected, and histamine levels were measured by competitive ELISA. Histamine secretion in Mitocur-1-treated mice was 35% less than that in control mice (FIG. 22A, p<0.05).

BMMC [6] = assay: ATP determination (ATPLite luminescence) in BMMC; type: cell-based, mouse; details: 60 μM Stattic, 20 min
Method: as §3
ATP levels were measured using the ATPLite luminescence-based assay according to the manufacturer's instructions (Perkin Elmer, Waltham, Mass., USA).

[7] = test system: STAT3 serine 727 phosphorylation; assay: Western blot of STAT3 serine 727 phosphorylation in activated RBL cells; type: cell-based, rat; details: RBL cells, 60 μM Stattic 20 min, immunologically activated 5 min
Method: RBL cells were washed once in cold PBS prior to homogenization. 9×10^6 cells were homogenized in buffer A (320 mm sucrose, 5 mm Tris, 2 mm EGTA, pH 7.4) with 10 strokes of a Teflon Dounce homogenizer. The procedure was performed at 4° C. The homogenate was centrifuged for 3 min at 2000 g and the supernatant kept. This was repeated twice, and the supernatants combined then centrifuged for 3 min at 2000 g. to remove the nuclei and cell debris. The supernatant was transferred to a clean tube and centrifuged for 10 min at 12,000 g to pellet mitochondria, washed twice resuspended in a small volume of buffer A and stored at −70° C. In order to prepare mitoplasts, the mitochondrial pellet was resuspended in buffer A with the addition of 0.02% (w/v) digitonin. The pellet was resuspended and washed twice in large volumes of digitonin-free buffer A. […] Cells and mitochondria were vortexed and incubated on ice for 15 min. The lysates were then centrifuged at 14,000 g for 15 min and pellets were discarded. The protein concentration of each sample was determined using Bradford Reagent (Sigma-Aldrich). Proteins were resolved by 10-15% SDS-PAGE under reducing conditions and transferred to polyvinylidene difluoride membranes (Millipore Billerica, Ma). […] The membranes were washed three times with TBST for 5 mM before and after each incubation with secondary Ab. The proteins were detected with the appropriate secondary Ab (1 h; room temperature) coupled to HRP-conjugated goat anti-rabbit or anti-mouse Ab and visualized by chemiluminescence according to the manufacturer's instructions (Pierce).

O=[N+]([O-])c1ccc2c(c1)S(=O)(=O)C=C2 [Stattic, 6-Nitrobenzo[b]thiophene 1,1-dioxide, reference compound]
change in succinate dehydrogenase (SDH, complex 2) activity [1]: No significant change
reduction in oxygen consumption (RBL cells [2]): 18.6±8.3%
Granzyme B secretion (BMMC [3]): greatly reduced
TNF-α secretion (RBL cells [4]): completely abolished
reduction in complex 2+3 activity [5]: 50.8±6.1%
histamine secretion less than in control mice (plasma histamine; Stattic 80 mg/kg i.p., 3.5 h before DNP-BSA challenge): 43%
decrease in histamine secretion (plasma histamine; mice, Stattic 40 mg/kg, after two and a half hours (data not shown)): 32.4%
reduction in ATP levels (BMMC [6]): 76.4±9.3%
phosphorylation levels of STAT3 serine 727 in total cell lysate [7]: significant reduction
